{"source": "patent US20260183297A1", "about": "“SELECTION OF PATIENTS FOR THE TREATMENT OF FADS1-MEDIATED DISEASES OR DISORDERS USING FADS-1 INHIBITORS” (AMGEN INC., priority 2022, published 2026)", "assay": "Plasma PUFA measurement (LC-MS/MS)", "type": "in vivo, mouse", "settings": "for FADS1 activity 20:4n-6/20:3n-6 / FADS2 activity 18:3n-6/18:2n-6: DIO mice plasma ratio; for FADS1 activity 20:4n-6/20:3n-6 / FADS2 activity 18:3n-6/18:2n-6 / Adrenic acid 22:4 n-6 / Alpha-Linolenic acid 18:3 n-3 / Arachidonic acid 20:4 n-6 / Dihomo-gamma-Linolenic acid 20:3 n-6 / Docosahexaenoic acid 22:6 n-3 / Eicosapentaenoic acid 20:5 n-3 / Eicosatetraenoic acid 20:4 n-3 / Gamma-Linoleic acid 18:3 n-6 / Linoleic acid 18:2 n-6: mean ± SD; for Adrenic acid 22:4 n-6 / Alpha-Linolenic acid 18:3 n-3 / Arachidonic acid 20:4 n-6 / Dihomo-gamma-Linolenic acid 20:3 n-6 / Docosahexaenoic acid 22:6 n-3 / Eicosapentaenoic acid 20:5 n-3 / Eicosatetraenoic acid 20:4 n-3 / Gamma-Linoleic acid 18:3 n-6 / Linoleic acid 18:2 n-6: DIO mice plasma; for Adrenic acid AdA 22:4 n-6 / Arachidonic acid AA 20:4 n-6 / Decosahexaenoic acid DHA 22:6 n-3 / Dihomo-γ-Linolenic acid DGLA 20:3 n-6 / Eicosapentaenoic acid EPA 20:5 n-3 / Eicosatetraenoic acid ETA 20:4 n-3 / Linoleic acid LA 18:2 n-6 / α-Linolenic acid ALA 18:3 n-3 / γ-Linoleic acid GLA 18:3 n-6: plasma of Compound A-treated mice; for FADS1 activity AA/DGLA 20:4n-6/20:3n-6 / FADS2 activity GLA/LA 18:3n-6/18:2n-6: plasma ratio, Compound A-treated mice", "protocol": "Ten microliter of plasma or PUFA standards diluted in surrogate matrix (60 g/l bovine serum albumin in Dulbecco's phosphate-buffered saline [DPBS]) were mixed with 10 μl of ALA-d14 as the internal stand in a 96-well plate. 100 μl of 2N NaOH was added to the mixture for subsequent saponification at 65° C. for 1 hour. The mixture was then acidified with 50 μl of formic acid followed by two consecutive 500 μl hexane extractions. The organic extracts from the two extractions were combined and the solvent was evaporated under nitrogen gas. […] The PUFA peak areas were quantified by using the Analyst software (SCIEX, Framingham, MA)."}
{"molecule": "COc1ccn2c(=O)c(-c3cnn(CC(F)(F)C(F)(F)F)c3)c(C(F)(F)F)nc2c1", "note": "[Compound A, 8-methoxy-3-(1-(2,2,3,3,3-pentafluoropropyl)-1H-pyrazol-4-yl)-2-(trifluoromethyl)-4H-pyrido[1,2-a]pyrimidin-4-one]", "values": [{"measurement": "FADS1 activity 20:4n-6/20:3n-6", "setting": "10 mg kg^−1, 46 or 54 days", "value": "0.06 ± 0.01"}, {"measurement": "FADS2 activity 18:3n-6/18:2n-6", "setting": "10 mg kg^−1, 46 or 54 days", "value": "0.018 ± 0.002"}, {"measurement": "FADS1 activity 20:4n-6/20:3n-6", "setting": "30 mg kg^−1, 46 or 54 days", "value": "0.05 ± 0.01"}, {"measurement": "FADS2 activity 18:3n-6/18:2n-6", "setting": "30 mg kg^−1, 46 or 54 days", "value": "0.014 ± 0.003"}, {"measurement": "Adrenic acid 22:4 n-6", "setting": "10 mg kg^−1, 46 or 54 days", "value": "1.0 ± 0.1", "unit": "µg/mL"}, {"measurement": "Alpha-Linolenic acid 18:3 n-3", "setting": "10 mg kg^−1, 46 or 54 days", "value": "0.9 ± 0.3", "unit": "µg/mL"}, {"measurement": "Arachidonic acid 20:4 n-6", "setting": "10 mg kg^−1, 46 or 54 days", "value": "16.1 ± 3.2", "unit": "µg/mL"}, {"measurement": "Dihomo-gamma-Linolenic acid 20:3 n-6", "setting": "10 mg kg^−1, 46 or 54 days", "value": "281.3 ± 34.6", "unit": "µg/mL"}, {"measurement": "Docosahexaenoic acid 22:6 n-3", "setting": "10 mg kg^−1, 46 or 54 days", "value": "93.5 ± 11.8", "unit": "µg/mL"}, {"measurement": "Eicosapentaenoic acid 20:5 n-3", "setting": "10 mg kg^−1, 46 or 54 days", "value": "0.3 ± 0.1", "unit": "µg/mL"}, {"measurement": "Eicosatetraenoic acid 20:4 n-3", "setting": "10 mg kg^−1, 46 or 54 days", "value": "2.5 ± 0.5", "unit": "µg/mL"}, {"measurement": "Gamma-Linoleic acid 18:3 n-6", "setting": "10 mg kg^−1, 46 or 54 days", "value": "3.4 ± 0.4", "unit": "µg/mL"}, {"measurement": "Linoleic acid 18:2 n-6", "setting": "10 mg kg^−1, 46 or 54 days", "value": "198.5 ± 10.5", "unit": "µg/mL"}, {"measurement": "Adrenic acid 22:4 n-6", "setting": "30 mg kg^−1, 46 or 54 days", "value": "0.8 ± 0.1", "unit": "µg/mL"}, {"measurement": "Alpha-Linolenic acid 18:3 n-3", "setting": "30 mg kg^−1, 46 or 54 days", "value": "0.7 ± 0.2", "unit": "µg/mL"}, {"measurement": "Arachidonic acid 20:4 n-6", "setting": "30 mg kg^−1, 46 or 54 days", "value": "12.5 ± 3.0", "unit": "µg/mL"}, {"measurement": "Dihomo-gamma-Linolenic acid 20:3 n-6", "setting": "30 mg kg^−1, 46 or 54 days", "value": "242.3 ± 23.4", "unit": "µg/mL"}, {"measurement": "Docosahexaenoic acid 22:6 n-3", "setting": "30 mg kg^−1, 46 or 54 days", "value": "78.2 ± 11.6", "unit": "µg/mL"}, {"measurement": "Eicosapentaenoic acid 20:5 n-3", "setting": "30 mg kg^−1, 46 or 54 days", "value": "0.3 ± 0.1", "unit": "µg/mL"}, {"measurement": "Eicosatetraenoic acid 20:4 n-3", "setting": "30 mg kg^−1, 46 or 54 days", "value": "1.9 ± 0.4", "unit": "µg/mL"}, {"measurement": "Gamma-Linoleic acid 18:3 n-6", "setting": "30 mg kg^−1, 46 or 54 days", "value": "2.8 ± 0.5", "unit": "µg/mL"}, {"measurement": "Linoleic acid 18:2 n-6", "setting": "30 mg kg^−1, 46 or 54 days", "value": "196.5 ± 24.6", "unit": "µg/mL"}, {"measurement": "Adrenic acid AdA 22:4 n-6", "setting": "10 mg/kg", "value": "1.0 ± 0.1", "unit": "µg/mL"}, {"measurement": "Arachidonic acid AA 20:4 n-6", "setting": "10 mg/kg", "value": "16.1 ± 3.2", "unit": "µg/mL"}, {"measurement": "Decosahexaenoic acid DHA 22:6 n-3", "setting": "10 mg/kg", "value": "93.5 ± 11.8", "unit": "µg/mL"}, {"measurement": "Dihomo-γ-Linolenic acid DGLA 20:3 n-6", "setting": "10 mg/kg", "value": "281.3 ± 34.6", "unit": "µg/mL"}, {"measurement": "Eicosapentaenoic acid EPA 20:5 n-3", "setting": "10 mg/kg", "value": "0.3 ± 0.1", "unit": "µg/mL"}, {"measurement": "Eicosatetraenoic acid ETA 20:4 n-3", "setting": "10 mg/kg", "value": "2.5 ± 0.5", "unit": "µg/mL"}, {"measurement": "Linoleic acid LA 18:2 n-6", "setting": "10 mg/kg", "value": "198.5 ± 10.5", "unit": "µg/mL"}, {"measurement": "α-Linolenic acid ALA 18:3 n-3", "setting": "10 mg/kg", "value": "0.9 ± 0.3", "unit": "µg/mL"}, {"measurement": "γ-Linoleic acid GLA 18:3 n-6", "setting": "10 mg/kg", "value": "3.4 ± 0.4", "unit": "µg/mL"}, {"measurement": "Adrenic acid AdA 22:4 n-6", "setting": "30 mg/kg", "value": "0.8 ± 0.1", "unit": "µg/mL"}, {"measurement": "Arachidonic acid AA 20:4 n-6", "setting": "30 mg/kg", "value": "12.5 ± 3.0", "unit": "µg/mL"}, {"measurement": "Decosahexaenoic acid DHA 22:6 n-3", "setting": "30 mg/kg", "value": "78.2 ± 11.6", "unit": "µg/mL"}, {"measurement": "Dihomo-γ-Linolenic acid DGLA 20:3 n-6", "setting": "30 mg/kg", "value": "242.3 ± 23.4", "unit": "µg/mL"}, {"measurement": "Eicosapentaenoic acid EPA 20:5 n-3", "setting": "30 mg/kg", "value": "0.3 ± 0.1", "unit": "µg/mL"}, {"measurement": "Eicosatetraenoic acid ETA 20:4 n-3", "setting": "30 mg/kg", "value": "1.9 ± 0.4", "unit": "µg/mL"}, {"measurement": "Linoleic acid LA 18:2 n-6", "setting": "30 mg/kg", "value": "196.5 ± 24.6", "unit": "µg/mL"}, {"measurement": "α-Linolenic acid ALA 18:3 n-3", "setting": "30 mg/kg", "value": "0.7 ± 0.2", "unit": "µg/mL"}, {"measurement": "γ-Linoleic acid GLA 18:3 n-6", "setting": "30 mg/kg", "value": "2.8 ± 0.5", "unit": "µg/mL"}, {"measurement": "FADS1 activity AA/DGLA 20:4n-6/20:3n-6", "setting": "10 mg/kg", "value": "0.06 ± 0.01"}, {"measurement": "FADS2 activity GLA/LA 18:3n-6/18:2n-6", "setting": "10 mg/kg", "value": "0.018 ± 0.002"}, {"measurement": "FADS1 activity AA/DGLA 20:4n-6/20:3n-6", "setting": "30 mg/kg", "value": "0.05 ± 0.01"}, {"measurement": "FADS2 activity GLA/LA 18:3n-6/18:2n-6", "setting": "30 mg/kg", "value": "0.014 ± 0.003"}, {"measurement": "decrease of AA/DHA ratio", "setting": "plasma, Compound A-treated mice (Table 6.1)", "value": "five-fold"}]}
